Laboratory results taken from ChEMBL document CHEMBL5154636, “Discovery of STAT3 and Histone Deacetylase (HDAC) Dual-Pathway Inhibitors for the Treatment of Solid Cancer” (J Med Chem, 2021).
Calls of active or inactive are those of the source. The calls are words filed in the database; no cut-off is given here.

How the values were obtained:
MDA-MB-231 [1] = experiment: Induction of apoptosis in human MDA-MB-231 cells assessed as late apoptotic cells at 5 uM incubated for 24 hrs by Annexin-V/FITC and PI staining based flow cytometry analysis (reference value: 0.7%); type: functional
[2] = biological target: Histone deacetylase 4 (Homo sapiens) (UniProt P56524); experiment: Inhibition of recombinant human HDAC4 at 10 uM using […] substrate by fluorescence assay relative to control
Chain of Histone deacetylase 4 (Homo sapiens) (P56524 whole entry): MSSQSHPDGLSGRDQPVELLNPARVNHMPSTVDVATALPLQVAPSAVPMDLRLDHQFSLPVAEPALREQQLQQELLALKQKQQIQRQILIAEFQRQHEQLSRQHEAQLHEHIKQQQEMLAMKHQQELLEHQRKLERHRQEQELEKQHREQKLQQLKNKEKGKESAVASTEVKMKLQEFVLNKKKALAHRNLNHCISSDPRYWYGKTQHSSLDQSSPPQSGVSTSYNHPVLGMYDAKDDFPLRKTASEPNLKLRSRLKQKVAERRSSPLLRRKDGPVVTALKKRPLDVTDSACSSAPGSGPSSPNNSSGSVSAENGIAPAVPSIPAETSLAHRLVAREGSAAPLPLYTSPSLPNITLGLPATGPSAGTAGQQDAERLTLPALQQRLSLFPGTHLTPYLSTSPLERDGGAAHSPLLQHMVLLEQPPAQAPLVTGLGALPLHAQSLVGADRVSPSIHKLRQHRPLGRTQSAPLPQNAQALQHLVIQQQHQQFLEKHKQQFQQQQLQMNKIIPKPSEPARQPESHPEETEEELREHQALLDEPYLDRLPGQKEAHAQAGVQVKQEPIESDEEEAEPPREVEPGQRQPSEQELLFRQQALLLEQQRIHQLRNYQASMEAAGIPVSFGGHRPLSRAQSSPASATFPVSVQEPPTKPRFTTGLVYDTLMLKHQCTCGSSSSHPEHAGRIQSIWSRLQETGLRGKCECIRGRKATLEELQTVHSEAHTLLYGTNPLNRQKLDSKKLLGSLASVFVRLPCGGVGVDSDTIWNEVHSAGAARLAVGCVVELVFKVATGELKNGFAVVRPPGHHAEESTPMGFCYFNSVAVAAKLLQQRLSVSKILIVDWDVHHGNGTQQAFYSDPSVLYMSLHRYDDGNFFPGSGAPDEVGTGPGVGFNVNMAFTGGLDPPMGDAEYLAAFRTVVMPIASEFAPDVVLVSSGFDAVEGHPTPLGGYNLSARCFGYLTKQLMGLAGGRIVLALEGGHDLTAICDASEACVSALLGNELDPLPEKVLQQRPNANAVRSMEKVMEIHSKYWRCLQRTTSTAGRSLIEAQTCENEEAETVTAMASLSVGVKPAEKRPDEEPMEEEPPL

[3] = Oral bioavailability in Sprague-Dawley rat at 20 mg/kg measured upto 24 hrs by LC-MS/MS analysis; type: ADME, organism-based; details: in vivo
[4] = biological target: T1, Histone deacetylase 11 (Homo sapiens) (UniProt Q96DB2); experiment: Inhibition of recombinant human HDAC11 at 10 uM using Boc-Lys(TFA)-AMC as substrate by fluorescence assay relative to control
T1 sequence (whole entry): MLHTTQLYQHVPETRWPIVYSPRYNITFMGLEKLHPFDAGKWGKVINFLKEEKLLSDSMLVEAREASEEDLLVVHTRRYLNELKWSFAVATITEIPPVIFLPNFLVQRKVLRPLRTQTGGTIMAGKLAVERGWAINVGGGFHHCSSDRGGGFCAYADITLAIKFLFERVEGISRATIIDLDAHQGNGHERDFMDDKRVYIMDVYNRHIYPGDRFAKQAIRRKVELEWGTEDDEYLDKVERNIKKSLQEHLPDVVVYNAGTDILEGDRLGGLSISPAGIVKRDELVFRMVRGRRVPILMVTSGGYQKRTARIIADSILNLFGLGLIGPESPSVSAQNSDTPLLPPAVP

[5] = biological target: T2, Signal transducer and activator of transcription 3 (Homo sapiens, UniProt P40763); experiment: Binding affinity to recombinant GST tagged STAT3 (unknown origin) assessed as association constant at equilibrium
T2 sequence (P40763 whole entry): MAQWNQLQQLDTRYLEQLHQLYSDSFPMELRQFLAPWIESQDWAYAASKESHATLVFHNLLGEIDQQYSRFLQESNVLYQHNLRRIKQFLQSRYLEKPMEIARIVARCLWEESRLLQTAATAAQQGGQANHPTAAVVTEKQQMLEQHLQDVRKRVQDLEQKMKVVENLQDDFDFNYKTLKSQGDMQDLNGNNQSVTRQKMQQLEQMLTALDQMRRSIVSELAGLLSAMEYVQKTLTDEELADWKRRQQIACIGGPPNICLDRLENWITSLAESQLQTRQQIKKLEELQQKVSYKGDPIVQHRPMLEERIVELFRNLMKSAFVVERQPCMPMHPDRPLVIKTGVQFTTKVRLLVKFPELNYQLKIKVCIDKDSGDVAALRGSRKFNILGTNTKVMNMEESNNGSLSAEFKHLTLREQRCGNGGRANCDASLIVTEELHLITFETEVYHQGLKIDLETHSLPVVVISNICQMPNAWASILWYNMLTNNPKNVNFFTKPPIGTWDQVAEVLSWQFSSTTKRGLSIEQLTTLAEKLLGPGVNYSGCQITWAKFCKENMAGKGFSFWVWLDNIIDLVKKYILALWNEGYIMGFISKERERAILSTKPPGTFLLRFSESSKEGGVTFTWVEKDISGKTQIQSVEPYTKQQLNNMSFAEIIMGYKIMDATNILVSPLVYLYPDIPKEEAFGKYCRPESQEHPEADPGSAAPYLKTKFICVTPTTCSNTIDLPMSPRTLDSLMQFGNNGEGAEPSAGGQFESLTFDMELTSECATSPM

[6] = Half life in Sprague-Dawley rat at 2 mg/kg, iv measured upto 24 hrs by LC-MS/MS analysis; type: ADME, organism-based; details: in vivo
MDA-MB-231 [7] = experiment: Induction of apoptosis in human MDA-MB-231 cells assessed as viable cells at 5 uM incubated for 24 hrs by Annexin-V/FITC and PI staining based flow cytometry analysis (reference value: 97.8%); type: functional; details: read-out: Activity
MDA-MB-231 [8] = experiment: Induction of apoptosis in human MDA-MB-231 cells assessed as necrotic cells at 10 uM incubated for 24 hrs by Annexin-V/FITC and PI staining based flow cytometry analysis (reference value: 0.0%); type: functional
[9] = biological target: T2, Signal transducer and activator of transcription 3; experiment: Inhibition of STAT3 in human MDA-MB-231 cells assessed as decrease in cyclin D1 mRNA expression at 0.5 to 5 uM by qRT-PCR analysis; type: cell-based; details: dose 0.5-5 µM
MDA-MB-231 [10] = experiment: Effect on STAT3 in human MDA-MB-231 cells assessed as […] phosphorylation at 10 uM incubated for 24 hrs by Western blot analysis; type: functional, cell-based
HCT-116 = experiment: Cytotoxicity against human HCT-116 cells assessed as reduction in cell viability incubated for 48 hrs by MTT assay; type: functional, cell-based; details: HCT-116, 48 h
[11] = biological target: T2, Signal transducer and activator of transcription 3; experiment: Inhibition of STAT3 phosphorylation at Y705 residue in human MDA-MB-231 cells incubated for 24 hrs by Western blot assay; type: cell-based; details: dose 0.5-5 µM
L02 = experiment: Cytotoxicity against human L02 cells assessed as reduction in cell viability at 32 uM incubated for 48 hrs by MTT assay relative to control; type: toxicity, cell-based; details: l02, 48 h
4T1 [12] = experiment: Antitumor activity against mouse 4T1 cells allografted in BALB/c mouse assessed as reduction in tumor volume at 15 mg/kg, ip qd for 21 days and measured every 3 days by vernier caliper method relative to control; type: functional; design: scale not given: the % may be the effect or the level left; details: time 21 day
MDA-MB-231 [13] = experiment: Induction of apoptosis in human MDA-MB-231 cells assessed as early apoptotic cells at 10 uM incubated for 24 hrs by Annexin-V/FITC and PI staining based flow cytometry analysis (reference value: 1.4%); type: functional
[14] = biological target: T3, Histone deacetylase (Homo sapiens) (UniProt Q13547+O15379+Q9UBN7+Q92769+Q9UQL6+Q8WUI4+Q9BY41+Q96DB2+P56524+Q9UKV0+Q969S8); experiment: Inhibition of HDAC in human MDA-MB-231 cells assessed as increase in histone H3 acetylation incubated for 24 hrs by Western blot analysis; type: cell-based; details: dose 0.5-5 µM, DDE = dose-dependent effect
[15] = biological target: T2, Signal transducer and activator of transcription 3; experiment: Inhibition of STAT3 in human MDA-MB-231 cells assessed as decrease in Bcl-2 protein expression at 0.5 to 5 uM after 24 hrs by Western blot analysis; type: cell-based; details: dose 0.5-5 µM
MDA-MB-231 [16] = experiment: Induction of apoptosis in human MDA-MB-231 cells assessed as viable cells at 2 uM incubated for 24 hrs by Annexin-V/FITC and PI staining based flow cytometry analysis (reference value: 97.8%); type: functional; details: read-out: Activity
[17] = Volume of distribution at steady state in Sprague-Dawley rat at 2 mg/kg, iv measured upto 24 hrs by LC-MS/MS analysis; type: ADME, organism-based; details: in vivo, read-out: Vdss
[18] = biological target: T3, Histone deacetylase (Homo sapiens); experiment: Inhibition of HDAC in human MDA-MB-231 cells assessed as increase in alpha tubulin acetylation incubated for 24 hrs by Western blot analysis; type: cell-based; details: dose 0.5-5 µM, DDE = dose-dependent effect
[19] = biological target: T2, Signal transducer and activator of transcription 3; experiment: Inhibition of STAT3 in human MDA-MB-231 cells assessed as decrease in Bcl-2 mRNA expression at 0.5 to 5 uM by qRT-PCR analysis; type: cell-based; details: dose 0.5-5 µM
4T1 [20] = experiment: Antitumor activity against mouse 4T1 cells allografted in BALB/c mouse assessed as reduction in tumor weight at 15 mg/kg, ip qd for 21 days by vernier caliper method relative to control; type: functional; design: scale not given: the % may be the effect or the level left; details: time 21 day
MDA-MB-231 [21] = experiment: Inhibition of colony formation in human MDA-MB-231 cells at 0.5 to 0.5 uM incubated for 24 hrs followed by culturing in fresh compound-free medium for 15 days by crystal violet dye based assay; type: functional, cell-based; details: dose 0.5-0.5 µM
Histone deacetylase = experiment: Inhibition of HDAC in human MDA-MB-231 cells incubated for 24 hrs by fluorometric assay; type: cell-based
MDA-MB-231 [22] = experiment: Induction of apoptosis in human MDA-MB-231 cells assessed as increase in cleaved PARP level at 0.5 to 5 uM incubated for 24 hrs by Western blot analysis; type: functional, cell-based; details: dose 0.5-5 µM
MDA-MB-231 [23] = experiment: Antimigratory activity against human MDA-MB-231 cells assessed as inhibition of cell migration at 5 uM after 24 hrs by scratch wound healing assay based phase contrast microscopy analysis; type: functional
4T1 [24] = experiment: Antitumor activity against mouse 4T1 cells allografted in BALB/c mouse assessed as reduction in tumor volume at 30 mg/kg, ip qd for 21 days and measured every 3 days by vernier caliper method relative to control; type: functional; design: scale not given: the % may be the effect or the level left; details: time 21 day
MDA-MB-231 [25] = experiment: Induction of apoptosis in human MDA-MB-231 cells assessed as necrotic cells at 5 uM incubated for 24 hrs by Annexin-V/FITC and PI staining based flow cytometry analysis (reference value: 0.0%); type: functional
MDA-MB-231 [26] = experiment: Cytotoxicity against human MDA-MB-231 cells assessed as reduction in cell viability incubated for 48 hrs by MTT assay; type: functional, cell-based; details: MDA-MB-231, 48 h
MDA-MB-231 [27] = experiment: Induction of apoptosis in human MDA-MB-231 cells assessed as early apoptotic cells at 5 uM incubated for 24 hrs by Annexin-V/FITC and PI staining based flow cytometry analysis (reference value: 1.4%); type: functional

**Q.** With COc1cc(/C=C/c2ccc(OCCCCCCC(=O)NO)cc2)cc(OC)c1 as the compound, how does the Activity (MDA-MB-231 [1]) read?
**A.** 3.9%

**Q.** What about the inhibition [2] of the same compound?
**A.** 12%

**Q.** What about the bioavailability [3] of the same compound?
**A.** 5.81%

**Q.** What about the inhibition [4] of the same compound?
**A.** 37%

**Q.** And the Ka [5]?
**A.** 451000 M⁻¹ s⁻¹

**Q.** What about the half-life [6] of the same compound?
**A.** 28.2 min

**Q.** What about the viability at 5 µM (MDA-MB-231 [7]) of the same compound?
**A.** 80.8%

**Q.** What about the Activity (MDA-MB-231 [8]) of the same compound?
**A.** 0.2%

**Q.** And the inhibition [9]?
**A.** Active

**Q.** And the Activity (MDA-MB-231 [10])?
**A.** Active

**Q.** What about the IC50 (HCT-116) of the same compound?
**A.** 1070 nM

**Q.** And the inhibition [11]?
**A.** Active

**Q.** And the Activity (L02)?
**A.** 32%

**Q.** And the Activity (4T1 [12])?
**A.** 54%

**Q.** What about the Activity (MDA-MB-231 [13]) of the same compound?
**A.** 39.6%

**Q.** And the Activity [14]?
**A.** Dde

**Q.** What about the inhibition [15] of the same compound?
**A.** Active

**Q.** And the viability at 2 µM (MDA-MB-231 [16])?
**A.** 89.3%

**Q.** And the Vd [17]?
**A.** 1.65 L/kg

**Q.** What about the Activity [18] of the same compound?
**A.** Dde

**Q.** And the inhibition [19]?
**A.** Active

**Q.** What about the Activity (4T1 [20]) of the same compound?
**A.** 53%

**Q.** And the inhibition (MDA-MB-231 [21])?
**A.** Active

**Q.** And the IC50 (Histone deacetylase)?
**A.** 23.15 nM

**Q.** What about the Activity (MDA-MB-231 [22]) of the same compound?
**A.** Active

**Q.** And the Activity (MDA-MB-231 [23])?
**A.** Active

**Q.** What about the Activity (4T1 [24]) of the same compound?
**A.** 64%

**Q.** What about the Activity (MDA-MB-231 [25]) of the same compound?
**A.** 0.2%

**Q.** What about the IC50 (MDA-MB-231 [26]) of the same compound?
**A.** 780 nM

**Q.** What about the Activity (MDA-MB-231 [27]) of the same compound?
**A.** 15.2%
